This is an account of results in patent publication US5711966A, “Method of treating malaria with desbutylhalofantrine” (priority 1996, dated 1998).

For data set [1] the following is noted: cited from earlier work; for arrhythmia torsades de pointes: in patients receiving the drug; for cardiotoxicity / potentially fatal arrhythmias: use for treatment of malaria.
The subject of data set [2] is isolated perfused cat heart (QT interval). Nature of the data set: QT interval prolongation in isolated perfused heart. To be noted: concentrations from 1 to 20 μM, pacing cycle length 400 msec. The method, then:
Comparative studies evaluating prolongation of the QT interval using quinidine, halofantrine, and desbutylhalofantrine were performed on isolated perfused animal hearts. […] The ability to treat malaria with this metabolite without causing cardiotoxicity greatly improves the safety of antimalarial treatment.
(§1) A comparison of the parent drug, halofantrine with the metabolite desbutylhalofantrine was conducted to determine which agent was primarily responsible for QT interval prolongation. The effects of halofantrine and its active metabolite (N-desbutylhalofantrine) on repolarization were examined in an isolated perfused heart model. […] In an attempt to further elucidate the mechanism for QT interval prolongation, the effects of racemic halofantrine, its stereoisomers and N-desbutylhalofantrine on repolarizing currents in isolated ventricular myocytes were studied using patch-clamp techniques.
The effects of halofantrine and its metabolite on repolarization were examined in the isolated perfused cat heart by the method of Woosley, et al. (JAMA 269:1532-1536 (1993)). Briefly, hearts were obtained from healthy, mature anesthetized cats and perfused in a Lagendorff apparatus maintained at 37° C. […] The AV node was destroyed by cautery to produce complete heart block and allow observations at slow cycle lengths. […]

For a further data set, the system named is Plasmodium falciparum. Nature of the data set: In vitro studies against various clones of Plasmodium falciparum. The format is cell-based. The method, then: Dosage of 500 mg every six hours for three doses on day one with repeat of that dosage on day 7 for a total dosage of 3000 mg is appropriate for most treatment purposes in adults. However, total dosage range of 50 to 5000 mg can be given depending on the condition, age and size of the patient. Desbutylhalofantrine may also be given at dosage of 50 to 1000 mg as a prophylactic measure. Dosage may be given daily or one day per week. Again, dosage will be determined by the clinician in accord with the needs of the particular patient. When given as a prophylactic agent, the administration may be continued for several months.

For the next data set, the system named is malaria. The note with it: teaching of U.S. Pat. No. 5,250,734 to Rossignol, et al; cited from earlier work.
Data set [3] deals with delayed rectifier potassium channel. Nature of the data set: Block of repolarizing current (delayed rectifier potassium channel) in isolated ventricular myocytes, whole cell patch-clamp. To be noted: isolated feline myocytes. The class given is cell-based. As for the experimental part: as §1
Individual Cardiac Myocytes:
The cardiac electro-pharmacologic effects of halofantrine, its stereoisomers and N-desbutylhalofantrine on repolarizing currents such as the delayed rectifier potassium channel were studied in feline ventricular myocytes in vitro by the method described by Woosley, et al. (JAMA 269:1532-1536 (1993)). Briefly, rod-shaped and quiescent ventricular cells were obtained and used for electrophysiological recordings using the whole cell, single-suction pipette, voltage-clamp ("patch-clamp") technique. Computer-controlled voltage clamp pulses (duration 750 ms) were used to elicit currents. Current signals were directed to a computer for storage and data analysis. […]

Each structure is given as a SMILES string. “Also recorded” adds a separate entry of the source. Like-named read-outs stand apart in the source and are kept apart here.

Turning to `CCN(CC)CCCC(C)Nc1ccnc2cc(Cl)ccc12` (centres unmarked) [chloroquine], the “arrhythmia torsades de pointes” value in data set [1] was “torsades de pointes has been seen in patients”.

`CCCCNCCC(O)c1cc2c(Cl)cc(Cl)cc2c2cc(C(F)(F)F)ccc12` (centres unmarked) [desbutylhalofantrine]: in data set [2], the “prolongation of the QT interval” value is on record as “did not prolong the QT interval even when concentrations were increased to twenty fold the concentration at which halofantrine resulted in prolongation of the QT interval; also recorded: had minimal effect on the QT interval relative to the baseline”. Further, in the data set on Plasmodium falciparum, the “potency relative to parent compound halofantrine against clones of Plasmodium falciparum” value is “approximately equipotent with the parent compound”. Moreover, the “effectiveness for treatment of malaria relative to halofantrine” value in the data set on malaria is “less effective than halofantrine for treatment of malaria”.

For the compound `C=C[C@H]1C[N@@]2CC[C@H]1C[C@H]2[C@H](O)c1ccnc2ccc(OC)cc12` [quinine], the “arrhythmia torsades de pointes” value in data set [1] is recorded as “torsades de pointes has been seen in patients”.

`C=C[C@H]1C[N@@]2CC[C@H]1C[C@@H]2[C@@H](O)c1ccnc2ccc(OC)cc12` [quinidine]: the “arrhythmia torsades de pointes” value in data set [1] is “torsades de pointes has been seen in patients”.

As for `CCCCN(CCCC)CCC(O)c1cc2c(Cl)cc(Cl)cc2c2cc(C(F)(F)F)ccc12` (racemic) [halofantrine], the “prolongation of the QT interval” value in data set [2] is “resulted in prolongation of the QT interval”. For the same compound, in data set [3], the “block of the delayed rectifier potassium channel” value was “produced a stereo-selective block of the delayed rectifier potassium channel”. In data set [1], the “arrhythmia torsades de pointes” value is “torsades de pointes has been seen in patients” and the “cardiotoxicity / potentially fatal arrhythmias” value is “can induce potentially fatal arrhythmias”. The “cardiotoxicity / potentially fatal arrhythmias” value in data set [1] (listed as Halofantrine) is given as “has been shown to cause cardiotoxicity”.
